Assay results reported in US20100184770A1, “COMPOUNDS” (Glaxo Group Limited, priority 2006, published 2010).

Key:
[1] = target: T1, human H1 receptor (Homo sapiens, UniProt P35367); experiment: Histamine H1 functional antagonist assay: determination of functional pKi values (FLIPR); type: cell-based; conditions: CHO cells expressing human H1 receptor, histamine at EC80, FLIPR, read-out: average pKi (pKb) at H1 (converted)
T1 construct: expressed in transfected cells
Experimental: 1. Generation of Histamine H1 Cell Line The human H1 receptor is cloned using known procedures described in the literature [Biochem. Biophys. Res. Commun., 201(2):894 (1994)]. Chinese hamster ovary (CHO) cells stably expressing the human H1 receptor are generated according to known procedures described in the literature [Br. J. Pharmacol., 117(6):1071 (1996)].
The histamine H1 cell line is seeded into non-coated black-walled clear bottom 384-well tissue culture plates in alpha minimum essential medium (Gibco/Invitrogen, cat no. 22561-021), supplemented with 10% dialysed foetal calf serum (Gibco/Invitrogen cat no. 12480-021) and 2 mM L-glutamine (Gibco/Invitrogen cat no 25030-024) and is maintained overnight at 5% CO2, 37° C.
Excess medium is removed from each well to leave 10 μl. 30 μl loading dye (250 μM Brilliant Black, 2 μM Fluo-4 diluted in Tyrodes buffer+probenecid (145 mM NaCl, 2.5 mM KCl, 10 mM HEPES, 10 mM D-glucose, 1.2 mM MgCl2, 1.5 mM CaCl2, 2.5 mM probenecid, pH adjusted to 7.40 with NaOH 1.0 M)) is added to each well and the plates are incubated for 60 min at 5% CO2, 37° C.
10 μl of test compound, diluted to the required concentration in Tyrodes buffer+probenecid (or 10 μl Tyrodes buffer+probenecid as a control) is added to each well and the plate is incubated for 30 min at 37° C., 5% CO2. The plates are then placed into a FLIPR™ (Molecular. Devices, UK) to monitor cell fluorescence (λex=488 nm, λEM=540 nm) in the manner described in Sullivan et al., (In: Lambert DG (ed.), Calcium Signaling Protocols, New Jersey: Humana Press, 1999, 125-136) before and after the addition of […] at a concentration that results in the final assay concentration of histamine being EC80.
Functional antagonism is indicated by a suppression of histamine induced increase in fluorescence, as measured by the FLIPR™ system (Molecular Devices). By means of concentration effect curves, functional affinities are determined using standard pharmacological mathematical analysis.

[2] = target: T2, histamine H3 receptor (Homo sapiens, UniProt Q9Y5N1); experiment: Histamine H3 functional antagonist assay ([35S]-GTPγS, membranes); type: biochemical; conditions: histamine at EC80, read-out: average pKi (pKb) at H3 (converted)
T2 construct: expressed in transfected cells; host or cells: CHO K1 cells with pSwitch/pGene (GeneSwitch), clone 3H3, mifepristone-induced; membranes
T2 sequence (Q9Y5N1 whole entry, species assumed): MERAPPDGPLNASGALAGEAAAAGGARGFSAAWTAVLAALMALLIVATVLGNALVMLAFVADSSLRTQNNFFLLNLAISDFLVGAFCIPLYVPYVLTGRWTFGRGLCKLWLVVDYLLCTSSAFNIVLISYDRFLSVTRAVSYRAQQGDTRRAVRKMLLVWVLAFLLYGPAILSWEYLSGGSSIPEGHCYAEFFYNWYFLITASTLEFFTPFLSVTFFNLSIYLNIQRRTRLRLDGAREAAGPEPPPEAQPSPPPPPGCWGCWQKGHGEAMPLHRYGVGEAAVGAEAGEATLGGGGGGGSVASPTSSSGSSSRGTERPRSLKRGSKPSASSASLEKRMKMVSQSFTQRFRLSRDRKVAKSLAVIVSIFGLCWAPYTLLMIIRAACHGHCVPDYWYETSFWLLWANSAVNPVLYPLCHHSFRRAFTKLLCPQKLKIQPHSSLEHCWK
Experimental: The histamine H3 cDNA is isolated from its holding vector, pcDNA3.1 TOPO (InVitrogen), by restriction digestion of plasmid DNA with the enzymes BamH1 and Not-1 and is ligated into the inducible expression vector pGene (InVitrogen) digested with the same enzymes. The GeneSwitch™ system (a system where in transgene expression is switched off in the absence of an inducer and switched on in the presence of an inducer) is performed as described in U.S. Pat. Nos. 5,364,791; 5,874,534; and 5,935,934. Ligated DNA is transformed into competent DH5α E. coli host bacterial cells and is plated onto Luria Broth (LB) agar containing Zeocin™ (an antibiotic which allows the selection of cells expressing the sh ble gene which is present on pGene and pSwitch) at 50 μgml^−1. Colonies containing the re-ligated plasmid are identified by restriction analysis. […]
10-14 days post selection, 10 nM Mifepristone (InVitrogen) is added to the culture medium to induce the expression of the receptor. […] Receptor bound antibody is detected by incubation of the cells for 60 min on ice with a goat anti rabbit antibody, conjugated with Alexa 488 fluorescence marker (Molecular Probes). Following two further washes with Sorting Medium, cells are filtered through a […] Filcon™ (BD Biosciences) and then are analysed on a FACS Vantage SE Flow Cytometer fitted with an Automatic Cell Deposition Unit. […]

T1 sequence (P35367 whole entry): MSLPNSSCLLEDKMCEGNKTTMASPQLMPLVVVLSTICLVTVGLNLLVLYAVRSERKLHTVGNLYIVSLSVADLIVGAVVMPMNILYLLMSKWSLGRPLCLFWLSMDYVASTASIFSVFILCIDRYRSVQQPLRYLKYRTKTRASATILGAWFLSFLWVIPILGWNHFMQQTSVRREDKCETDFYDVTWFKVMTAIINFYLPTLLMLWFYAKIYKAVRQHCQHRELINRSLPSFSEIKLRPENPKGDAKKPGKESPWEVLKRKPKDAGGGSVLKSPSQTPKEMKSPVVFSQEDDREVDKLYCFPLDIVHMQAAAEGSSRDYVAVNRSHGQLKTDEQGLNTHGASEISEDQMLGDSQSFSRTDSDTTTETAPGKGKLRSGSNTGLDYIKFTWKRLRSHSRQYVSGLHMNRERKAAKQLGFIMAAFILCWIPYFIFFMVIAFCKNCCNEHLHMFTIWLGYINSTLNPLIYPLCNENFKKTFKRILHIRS

Row | Compound | Ki [1] [nM] | Ki [2] [nM]
1 | Cl.O=C(CC(F)(F)F)NCCN1CCC[C@@H]1Cn1nc(Cc2ccc(Cl)cc2)c2ccccc2c1=O [Example 36a, N-[2-((2R)-2-{[4-[(4-Chlorophenyl)methyl]-1-oxo-2(1H)-phthalazinyl]methyl}-1-pyrrolidinyl)ethyl]-3,3,3-trifluoropropanamide, hydrochloride] | < 31.6 | > 316
2 | COCCC(=O)NCCN1CCC[C@@H]1Cn1nc(Cc2ccc(Cl)cc2)c2ccccc2c1=O.O=CO [Example 35, N-[2-((2R)-2-{[4-[(4-Chlorophenyl)methyl]-1-oxo-2(1H)-phthalazinyl]methyl}-1-pyrrolidinyl)ethyl]-3-(methyloxy)propanamide, formate salt] | < 316 | > 316
